Reference: US12544365B2, “Pharmaceutical combination of an EP4 antagonist and immune checkpoint inhibitors for the treatment of tumours” (ROTTAPHARM BIOTECH S.R.L., priority 2019, dated 2026)

What was measured:
[1] = biological target: human recombinant EP4 receptor (Homo sapiens, UniProt P35408); assay: [3H]-PGE2 specific binding on human recombinant EP4 receptor (HEK293 membranes)
Protocol: Cell membranes were prepared from HEK293 cell line (Human Embryonic Kidney 293) stably overexpressing human recombinant EP4 receptor. Cells grow adherent in DMEM with Glutamax | containing 10% FBS at 37° C. with 5% CO2. For membranes preparation, culture medium was aspirated from 150 cm^2 flasks in which cells were seeded. Cell monolayers were washed with 10 ml of hypotonic lysis buffer (TRIS 5 mM+EDTA 5 mM-pH 7.4), then cells were detached and lysed with the same buffer and by mechanical scraping. Lysates were centrifuged at 40000×g at 4° C. for 22 min. Pellets were stored at −80° C. until the use.
[3H]-Prostaglandin E2 ([3H]-PGE2) binding assays were performed in 10 mM MES-KOH buffer pH6, containing 10 mM MgCl2 and 1 mM CaCl2. Ten microgram of protein from membrane fractions are incubated in a total volume of 0.1 ml with 1 nM [3H]-PGE2. In order to determine the total binding or the non specific binding, 1% DMSO or 1 μM PGE2 were added to reaction mixtures, respectively. The specific binding represented >85% of total binding. In competition curves, the diluent was substituted by the test compounds (8 concentration spanning at least 2 order of magnitude; points in duplicates). In an independent series of experiments, competition curves of the same compounds were performed in the presence of Bovine Serum Albumin 0.5%. Incubation was carried out in a 96 multiwell plate for 90 min at room temperature, prior to separation of the bound and free radioligand by rapid filtration on glass fiber filters (Unifilter GFB96, PerkinElmer Inc) pre-soaked in 0.3% polyethyleneimine. Filters were washed with ice cold buffer pH 7.4 (50 mM HEPES, NaCl 500 mM, BSA 0.1%), dried for 30 minutes at 30° C. and then 0.1 ml of MICROSCINT-20 (PerkinElmer Inc) were added. The residual [3H]-PGE2 binding was determined by solid scintillation counter (TopCount, PerkinElmer Inc), after at least 1 hour of stabilization. Results of the competition curves were expressed as IC50 and the corresponding Ki were calculated according to the Chang-Prousoff equation. Finally the Ki value was transformed in pKi (the negative log of Ki).

CT26 cancer cell tumours = assay: CT26 syngeneic model of mouse colorectal cancer in Balb/c mice; type: in vivo; settings: compounds 30 mg/kg oral daily day 7-23; anti PD-1 i.p. 20 mg/kg day 8, 10 mg/kg days 13, 19, 22
Protocol: Male Balb/c mice 4-6 weeks old were housed five per cage in a temperature and humidity controlled room with a 12h/12h light/dark cycle. Throughout the experiment the animals had free access to food and water. The Balb/c mice were randomly divided into 6 groups (n=15 in each group): vehicle, Compound 1, Compound 2, anti PD-1, Compound 1+anti PD-1, Compound 2+anti PD-1 group.
CT26 cells were purchased from ATCC and cultured in Dulbecco's Modified Eagle's Medium (DMEM; ThermoFisher Scientific) supplemented with 10% fetal bovine serum (FBS; Sigma Aldrich) at 37° C. in an incubator with 5% CO2. Cells were sub-cultured twice a week until the number of cells needed for inoculation was obtained.
On the day of transplantation (day 0) logarithmic growing phase cells were harvested, diluted in PBS and 10^6 cells in 0.2 ml of PBS were subcutaneously inoculated into the lateral abdominal region of each mouse using a 26G syringe.
On day 7 after inoculation the mice were randomized into the 6 treatment groups each of 15 animals receiving respectively vehicle, Compound 1, Compound 2, anti PD-1 and the combination therapies. […]
Tumour sizes (mm^3) were evaluated twice a week by using a digital caliper. The tumour volumes were calculated measuring the tumour lengths along the major and minor axis and using the formula: Volume=[[…]]/2.

Chain of human recombinant EP4 receptor (P35408 whole entry): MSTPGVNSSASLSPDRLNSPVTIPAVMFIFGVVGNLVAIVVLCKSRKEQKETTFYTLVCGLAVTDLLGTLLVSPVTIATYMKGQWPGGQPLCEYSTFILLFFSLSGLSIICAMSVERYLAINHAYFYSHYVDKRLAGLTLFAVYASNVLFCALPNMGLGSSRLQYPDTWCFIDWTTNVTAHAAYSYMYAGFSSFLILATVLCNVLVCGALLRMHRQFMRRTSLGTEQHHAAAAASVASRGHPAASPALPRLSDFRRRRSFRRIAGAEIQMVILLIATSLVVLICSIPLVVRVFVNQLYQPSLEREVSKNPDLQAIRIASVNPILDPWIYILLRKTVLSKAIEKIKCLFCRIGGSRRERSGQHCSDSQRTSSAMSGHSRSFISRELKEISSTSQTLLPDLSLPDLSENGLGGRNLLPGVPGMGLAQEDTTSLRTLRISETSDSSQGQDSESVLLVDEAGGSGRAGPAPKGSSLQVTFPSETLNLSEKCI

O=C([O-])c1ccc(C2(NC(=O)[C@H]3CCCCN3Cc3ccc(C(F)(F)F)cc3)CC2)cc1.[Na+] [Compound 2, (R)-4-(1-(1-(4-(trifluoromethyl)benzyl)piperidine-2-carboxamido)cyclopropyl)benzoic acid, Sodium salt]
Ki ([1]; BSA 0.5%): 200 nM
lower affinity in the presence of proteins (BSA) ([1]; BSA 0.5% vs none): 6 fold
Ki ([1]; None (absence of BSA)): 31.6 nM
effect on tumour growth (tumour volume) (CT26 cancer cell tumours): only showed a slight impairment of tumour growth
